ChEMBL document CHEMBL1142580, “Malettinins B-D: new polyketide metabolites from an unidentified fungal colonist of Hypoxylon Stromata (NRRL 29110)” (2005)

Assays:
Assay type in all cases: functional
Conditions in all cases: read-out: IZ
[1] = tested on: Staphylococcus aureus; test: Antimicrobial activity against Staphylococcus aureus ATCC 29213 at 200 ug/disk by standard disk assay
[2] = tested on: Bacillus subtilis; test: Antimicrobial activity against Bacillus subtilis ATCC 6051 at 200 ug/disk by standard disk assay
[3] = tested on: Candida albicans; test: Antimicrobial activity against Candida albicans ATCC 90029 at 250 ug/disk by standard disk assay

Structure (SMILES) | zone of inhibition at 200 µg/disc [1] [mm] | zone of inhibition at 200 µg/disc [2] [mm] | zone of inhibition at 250 µg/disc [3] [mm]
Cc1cc(=O)c(O)cc2c1C[C@@H](C)[C@]1(OC[C@@H](C)[C@H]1O)O2 [MALETTININ B] | 24 | 26 | 19
Cc1cc(=O)c(O)cc2c1C[C@@H](C)[C@@]1(OC[C@@H](C)[C@H]1O)O2 [MALETTININ C] | 12 | 15 | 13
